Where two headings read alike, the source gives them in different places.
Tests used:
[1] = tested on: CFPAC-1 (ductal pancreatic adenocarcinoma); test: MTT proliferation assay, CFPAC-1; format: cell-based; conditions: Homo sapiens, 72 h
Experimental: (§1) Human tumor cell lines HeLa (cervical carcinoma), SW620 (colorectal adenocarcinoma, metastatic), A549 (lung adenocarcinoma), MCF−7 (breast adenocarcinoma), CFPAC-1 (pancreatic adenocarcinoma, metastatic), HCT-116 (colorectal carcinoma), and HepG2 (hepatocellular carcinoma), and normal cell lines HFF-1 (foreskin fibroblasts) and WI-38 (immortalized human lung fibroblast), were from the US American Type Culture Collection (ATCC, Manassas, VA, USA). Cells were cultured in a liquid nutrient medium (Dulbecco’s Modified Eagle Medium, LONZA, Basel, Switzerland) supplemented with 10% fetal bovine serum (FBS, Gibco, Grand Island, NY, USA), 2 mM L-glutamine (GIBCO, Grand Island, NY, USA), 100 μg/mL penicillin, and 100 μg/mL streptomycin (LONZA, Basel, Switzerland), in an incubator (NÜVE, Ankara, Turkey), at a humid atmosphere with 5% CO2 at 37 °C. Trypsin/EDTA Solution (Lonza, Basel, Switzerland), was used for cell passaging and cell detachment.
(§2) Adherent cells were seeded on 96 well microtiter plates (Falcon, New York, NY, USA) at a seeding density of 5000 cells per well, added in 150 μL of cell suspension in a nutrient medium. 24 h after seeding, cells were treated with compound 4b–4g, 4i, 4k–4t, 4v, 7c–7g, and 7i–7q dilutions in the range of 0.01 μM to 100 μM. L-ascoric acid (Sigma Aldrich, Darmstadt, Germany) and Carboxyamidotriazole (Sigma Aldrich, Darmstadt, Germany) were used as control compounds. Incubation of the cells with the compounds were performed for 72 h in a 5% CO2, in humid atmosphere at 37 °C. After incubation, nutrient medium was removed and 40 μL of the MTT reagent ([…]-2,5-diphenyltetrazole bromide (Invitrogen, Carlsbad, CA, USA) was added to each well. 3 h after incubation, 160 μL of DMSO (VWR CHEMICALS, Radnor, PA, USA) were added to each well to dissolve the crystals of purple formazane. The absorbance was measured at 570 nm (TECAN SUNRISE Microtiter plate reader (Männedorf, Switzerland). The experimentally measured optical densities (OD) were converted to the PG (percentage of growth), using the formulas according to the protocol assumed by NIH (National Institute of Health). The IC50 values (concentration causing 50% cell growth inhibition) for each compound were calculated by regression analysis of the survival count curve of the concentrations of the tested compounds. The results were processed in Excel 2010 (Microsoft, Redmond, WA, USA).

[2] = tested on: A549 (lung adenocarcinoma); test: MTT proliferation assay, A549; format: cell-based; conditions: Homo sapiens, 72 h
Experimental: as §1, §2

[3] = tested on: tested cell lines (A549, CFPAC-1, HCT-116, HeLa, HepG2, MCF-7, SW620, WI-38, HFF-1); test: MTT proliferation assay, whole tested cell panel; format: cell-based, Human; conditions: 0.01 µM to 100 µM, 72 h
Experimental: The C-6 substituted 1,2,3-triazole derivatives of L-ASA within the C5-OH group ([…], 4i, 4k−4t, and 4v) and with the C4=C5 double bond (7c−7g and 7i−7q) were evaluated against seven malignant tumor cell lines: lung adenocarcinoma (A549), ductal pancreatic adenocarcinoma (CFPAC-1), colorectal carcinoma (HCT-116), cervical carcinoma (HeLa), hepatocellular carcinoma (HepG2), breast adenocarcinoma (MCF-7), colorectal adenocarcinoma, and metastatic (SW620); as well as normal cell lines: lung fibroblasts (WI-38) and foreskin fibroblasts (HFF-1) (Table 3, Table S1, Supplementary Information). L-ASA was used as a positive control, and carboxyamidotriazole, a known antiproliferative agent that inhibits tumor cell growth, invasion, and metastasis, and 5-fluorouracil (5-FU), were used as reference compounds.
as §1, §2

[4] = tested on: SW620 (colorectal adenocarcinoma, metastatic); test: MTT proliferation assay, SW620; format: cell-based; conditions: Homo sapiens, SW-620, 72 h
Experimental: as §1, §2

[5] = tested on: HeLa (cervical carcinoma); test: MTT proliferation assay, HeLa; format: cell-based; conditions: Homo sapiens, 72 h
Experimental: as §1, §2

[6] = tested on: HFF-1 (foreskin fibroblasts); test: MTT proliferation assay, HFF-1; format: cell-based; conditions: Homo sapiens, 72 h, normal foreskin fibroblasts
Experimental: as §1, §2

[7] = tested on: HCT-116 (colorectal carcinoma); test: MTT proliferation assay, HCT-116; format: cell-based; conditions: Homo sapiens, 72 h
Experimental: as §1, §2

[8] = tested on: MCF-7 (breast adenocarcinoma); test: MTT proliferation assay, MCF-7; format: cell-based, Human; conditions: Homo sapiens, MCF7; 72 h, MTT
Experimental: as §1, §2

[9] = tested on: HepG2 (hepatocellular carcinoma); test: MTT proliferation assay, HepG2; format: cell-based; conditions: Homo sapiens, 72 h
Experimental: as §1, §2

[10] = DPPH radical scavenging assay; format: biochemical
Experimental: Likewise, L-ASA, the 1,2,3-triazole L-ASA derivatives with free C2-OH and C3-OH groups were expected to be potent antioxidants. Therefore, they were tested as radical scavengers by reaction with the stable free radical 2,2-diphenyl-1-picrylhydrazyl (DPPH^•).
Antioxidant capacity of selected compounds was assessed by 2,2-diphenyl-1-picrylhydrazyl assay (DPPH, Sigma Aldrich, Darmstadt, Germany), in which the antioxidant activity of compounds is measured by the reaction between a stable radical of 1,1-diphenyl-2-picylhydrazil (DPPH^•) and a selected compound according to the manufacturer recommendations. Briefly, compounds 4b–4e, 4f–4h, 4k, 4l, 4o, 4p–4s, 4t, 4v, 7c–7f, 7i–7n, 7q, 7p, and 7o were tested at 0.06, 0.12, 0.18, 0.23, 0.25, and 0.28 mM. L-ascorbic acid was used as the reference compound. Absorbance was measured 5 and 10 min after incubation of the compounds with the DPPH reagent. The reduction of DPPH with selected compounds was monitored by measuring the absorbance at a wavelength of 517 nm on the monochromator (Infinite M200 PRO, TECAN, Männedorf, Switzerland).

WI-38 (lung fibroblasts) = test: MTT proliferation assay, WI-38; format: cell-based; conditions: Homo sapiens, 72 h, normal lung fibroblasts
Experimental: as §1, §2

[11] = 5 min treatment, read-out: IC50 of DPPH• inhibition, Treatm. 5 min
[12] = 10 min treatment, read-out: IC50 of DPPH• inhibition, Treatm. 10 min

Row | Compound | IC50 [1] | IC50 [2] | IC50 [4] | IC50 [5] | IC50 [7] | IC50 [8] | IC50 [9] | IC50 [10, 11] | IC50 [10, 12] | melting point | antiproliferative / cytotoxic effect on the tested cell lines (in words) [3] | IC50 [6] | IC50 (WI-38 (lung fibroblasts))
1 | O=C1O[C@H]([C@@H](O)Cn2ccnn2)C(O)=C1O [Compound 4b, 6-deoxy-6-(1,2,3-triazol-1-yl)-L-ascorbic acid] | > 100 µM | > 100 µM | > 100 µM | > 100 µM | > 100 µM | > 100 µM | > 100 µM | 130 µM | 130 µM | 219 to 221 °C | not cytotoxic |  | > 100 µM
2 | COc1ccc(-c2cn(C[C@H](O)[C@H]3OC(=O)C(O)=C3O)nn2)cc1 [Compound 4g, 6-deoxy-6-[4-methoxyphenyl-1,2,3-triazol-1-yl]-L-ascorbic acid] | > 100 µM | > 100 µM | > 100 µM | > 100 µM | > 100 µM | > 100 µM | > 100 µM | 190 ± 10 µM | 190 ± 10 µM |  | did not show any cytotoxic effects | > 100 µM | > 100 µM
3 | Cc1ccc(-c2cn(C[C@H](O)[C@H]3OC(=O)C(O)=C3O)nn2)cc1 [Compound 4f, 6-deoxy-6-[4-tolyl-1,2,3-triazol-1-yl]-L-ascorbic acid] | > 100 µM | > 100 µM | > 100 µM | > 100 µM | > 100 µM | > 100 µM | > 100 µM | 200 ± 20 µM | 140 ± 10 µM | 152 to 154 °C | did not show any cytotoxic effects | 69.3 µM | > 100 µM

Molecules with a lower IC50 [1], results first:

Row | IC50 [1] | IC50 [2] | IC50 [4] | IC50 [5] | IC50 [7] | IC50 [8] | IC50 [9] | IC50 [10, 11] | IC50 [10, 12] | melting point | Compound | antiproliferative / cytotoxic effect on the tested cell lines (in words) [3] | IC50 [6] | IC50 (WI-38 (lung fibroblasts))
4 | 75.8 µM | 81.7 µM | 92 µM | 56.8 µM | 64.8 µM | 39.8 µM | 95.3 µM | 270 ± 10 µM | 270 µM | 189 to 191 °C | O=C1O[C@H]([C@@H](O)Cn2cc(-c3cc(F)cc(F)c3)nn2)C(O)=C1O [Compound 4d, 6-deoxy-6-[4-(3,5-difluorophenyl)-1,2,3-triazol-1-yl]-L-ascorbic acid] | nonspecific cytostatic effect | 0.12 µM | > 100 µM
5 | 41.6 µM | 51.6 µM | 41.3 µM | 31.8 µM | 19.9 µM | 14.7 µM | 40.1 µM |  |  |  | NC(=O)c1nnn(Cc2cc(Cl)c(C(=O)c3ccc(Cl)cc3)c(Cl)c2)c1N [Carboxyamidotriazole, carboxyamidotriazole, reference compound] | non-selective, moderate antiproliferative effect | 32.6 µM | 

— article PMC6801448, “The Antioxidant and Antiproliferative Activities of 1,2,3-Triazolyl-L-Ascorbic Acid Derivatives” (International Journal of Molecular Sciences, 2019)
